One series has as its target wildtype STAT3 protein (Homo sapiens, UniProt P40763). The experiment in a line: Fluorescence polarization competitive binding, STAT3. As to conditions: FP; converted from IC50 with Equation 1. Here is the method: Binding of compounds of the disclosure to the STAT5b SH2 domain was assessed using fluorescence polarization assays similar to those previously reported.^15 Analogous assays were also performed with STAT3 protein to determine the specificity of the compounds (13a-d). Fluorescence assays were performed in flat black 384-well plates (Corning) and fluorescence polarization measurements were taken with the Infinite M1000 machine (Tecan, Crailsheim, Germany). The buffer conditions for all assays were 20 mM HEPES, 50 mM NaCl, 1 mM EDTA, 2 mM dithiothreitol, pH 7.5 and the final DMSO concentration in the wells was kept constant at 10%.
Calibration curves for the wildtype STAT3 and STAT5b proteins were derived by incubating a 10 nM final concentration of fluoresceinated-phosphopeptide (5-FAM-pYLPQTC (SEQ ID NO:1) and 5-FAM-GpYLVLDKW (SEQ ID NO:2) for STAT3 and STAT5B, respectively), which are known to bind the SH2 domains, with increasing concentrations of protein (as shown in FIG. 3). The point at which 80% of the fluoresceinated-phosphopeptide was bound was used as the optimal protein concentration required for the competitive fluorescent polarization assays.
For the STAT5b fluorescence polarization assays, the 5-FAM-GpYLVLDKW (SEQ ID NO:2) peptide and STAT5b protein were first incubated for 30 minutes at room temperature. Compounds were titrated at concentrations ranging from 1->60,000 nM and incubated for a further 15 minutes at which point fluorescence polarization measurements were taken in triplicate. The final well concentrations of the fluoresceinated-phosphopeptide and STAT5B were 10 nM and 250 nM, respectively. The same protocol was used for the analogous STAT3 FP assays, except that the 5-FAM-pYLPQTC (SEQ ID NO:1) peptide was used as a probe and the final STAT3 concentration was 150 nM in each well.
The resulting fluorescence polarization measurements were normalized and plotted against compound concentration on a logarithmic scale. The raw data was fitted with a standard dose-normalized response inhibition curve using GraphPad Prism 6 software. The IC50 values were converted to Ki values using Equation 1, which corrects for protein concentration and is a more accurate determination of inhibitory constants in a fluorescence polarization assay than the Cheng-Pruskoff equation.^15 All inhibitory constants and calculated Ki values are summarized in Table 1.
Modified Cheng-Pruskoff equation containing a correction factor for protein concentration.
Background: Polarisation of emitted light reports the rotation of a fluorescent probe.

Another series has as its target T1, STAT5.
T1 construct: rows headed: KD (koff/kon) STAT5
The note with it: SPR, 25° C., Langmuir 1:1 binding model; read-out: KD (koff/kon) STAT5. Here is the method:
Interactions of His-tagged STAT3 and STAT5 with small molecules were investigated using SPR spectroscopy. The binding experiments were carried on a ProteOn XPR36 (Bio-Rad) biosensor at 25° C. using the HTE sensor chip (Bio-Rad, Ontario, Canada). The flow cells of the sensor chip were loaded with a nickel solution at 30 μL/min for 120 s to saturate the Tris-NTA surface with Ni(II) ions. […] When the injection of the compounds was completed, running buffer was allowed to flow over the immobilized substrates for the non-specifically bound inhibitors to dissociate for 600 s. Following dissociation of the compounds, the chip surface was regenerated with an injection of 1 M NaCl at a flow rate of 100 μL/min for 18 s. Interspot channel reference was used for non-specific binding corrections and the blank channel used with each analyte injection served as a double reference to correct for possible baseline drift. Data were analysed using ProteOn Manager Software version 3.1.

Series [1] in a line: HPLC stability with excess glutathione tripeptide. Format: in vitro ADME. The note with it: 100 μM compound, 10 mM glutathione, HEPES buffer, 20 h. From the text: Considering the structure of 13a, the pentafluorobenzene is the functional moiety that is likely most susceptible to nucleophilic attack from the GST enzyme. Specifically, the para position is highly electron withdrawn enabling for nucleophilic aromatic substitution to take place. […] Data points obtained with the analytical HPLC experiments were fit using ORIGIN software using an exponential decay equation. This equation models for chemical/biological processes whereby a rate in which something happens is proportional to the amount left. Each drug molecule has a certain probability of being metabolized in a small time interval. Thus, as a drug concentration goes down, the rate of its metabolism goes down as well.

This is an account of results in patent publication US10519107B2, “Sulfonamide compounds and their use as STAT5 inhibitors” (Governing Council of the University of Toronto, priority 2014, dated 2019).

Chain of wildtype STAT3 protein (P40763 whole entry, species assumed, the tested form may be a part): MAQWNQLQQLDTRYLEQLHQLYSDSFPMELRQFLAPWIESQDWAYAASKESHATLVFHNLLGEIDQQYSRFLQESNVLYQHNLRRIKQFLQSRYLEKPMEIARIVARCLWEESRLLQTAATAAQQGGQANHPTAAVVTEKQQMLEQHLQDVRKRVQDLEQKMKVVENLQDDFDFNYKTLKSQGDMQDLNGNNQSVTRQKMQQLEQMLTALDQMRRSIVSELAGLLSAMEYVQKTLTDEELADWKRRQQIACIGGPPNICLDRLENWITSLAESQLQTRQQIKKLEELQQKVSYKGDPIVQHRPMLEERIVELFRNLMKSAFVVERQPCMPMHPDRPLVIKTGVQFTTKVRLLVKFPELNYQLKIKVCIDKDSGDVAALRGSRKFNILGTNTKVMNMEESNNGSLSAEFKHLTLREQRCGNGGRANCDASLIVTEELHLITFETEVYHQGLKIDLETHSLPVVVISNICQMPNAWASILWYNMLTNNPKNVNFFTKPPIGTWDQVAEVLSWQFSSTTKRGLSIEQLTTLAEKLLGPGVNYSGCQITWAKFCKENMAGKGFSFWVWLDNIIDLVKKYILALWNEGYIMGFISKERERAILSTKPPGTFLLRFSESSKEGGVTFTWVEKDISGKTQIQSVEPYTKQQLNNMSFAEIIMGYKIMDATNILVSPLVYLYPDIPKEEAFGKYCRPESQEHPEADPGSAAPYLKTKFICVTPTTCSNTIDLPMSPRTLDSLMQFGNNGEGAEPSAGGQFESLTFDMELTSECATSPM

A word on the Ki: it is the equilibrium dissociation constant of an inhibitor or competing ligand from its target. In the case of `CC(C)(C)c1cc(CN(C(=O)CN(Cc2ccc(Cl)cc2)S(=O)(=O)c2c(F)c(F)c(F)c(F)c2F)c2ccc(C(=O)O)c(O)c2)cc(C(C)(C)C)c1` [Compound 13a, 4-(2-((N-(4-chlorobenzyl)-2,3,4,5,6-pentafluorophenyl)sulfonamido)-N-(3,5-di-tert-butylbenzyl)acetamido)-2-hydroxybenzoic Acid], at wildtype STAT3 protein, the Ki is greater than 60000 nM. Also, the Kd on STAT5 came to 41.9 ± 4 nM. Further, the “stability to glutathione conjugation” value in series [1] is on record as “stable to glutathione conjugation”.
